Measurements as given in ChEMBL document CHEMBL1128879, “Design, synthesis, and structure-activity relationships of 2-substituted-2-amino-1,3-propanediols: Discovery of a novel immunosuppressant, FTY720” (Bioorg Med Chem Lett, 1995).

What was measured:
Mus musculus = species: Mus musculus; test: In vitro ability to inhibit mouse allogenic mixed leukocyte response (MLR); type: functional
Rattus norvegicus [1] = test: (§1) Compound was evaluated in vivo in rat skin allograft by intravenous (iv) administration; toxic; type: organism-based
Rattus norvegicus [2] = test: Compound was evaluated in vivo for the immunosuppressive activity following intraperitoneal (ip) administration at a dose of 3 mg/Kg; type: functional
Rattus norvegicus [3] = test: Compound was evaluated in vivo for the immunosuppressive activity following intraperitoneal (ip) administration at a dose of 1 mg/Kg; type: functional
Rattus norvegicus [4] = test: Compound was evaluated in vivo for the immunosuppressive activity following intraperitoneal (ip) administration at a dose of 0.3 mg/Kg; type: functional
Rattus norvegicus [5] = test: as §1; type: functional
Rattus norvegicus [6] = test: Compound was evaluated in vivo for the immunosuppressive activity following intraperitoneal (ip) administration at a dose of 0.1 mg/Kg; type: functional
Rattus norvegicus [7] = test: Compound was evaluated in vivo in rat skin allograft by intravenous (iv) administration; not toxic; type: functional
Rattus norvegicus [8] = test: Compound was evaluated in vivo for the immunosuppressive activity following intravenous (iv) administration at a dose of 0.1 mg/kg; type: functional
Rattus norvegicus [9] = test: Compound was evaluated in vivo for the immunosuppressive activity following peroral (po) administration at a dose of 30 mg/Kg; type: functional
Rattus norvegicus [10] = test: Compound was evaluated in vivo for the immunosuppressive activity following peroral (po) administration at a dose of 0.1 mg/Kg; type: functional
Rattus norvegicus [11] = test: Compound was evaluated in vivo for the immunosuppressive activity following intravenous (iv) administration at a dose of 3 mg/Kg; type: functional
Rattus norvegicus [12] = test: Compound was evaluated in vivo for the immunosuppressive activity following peroral (po) administration at a dose of 3 mg/Kg; type: functional
Rattus norvegicus [13] = test: Compound was evaluated in vivo for the immunosuppressive activity following intravenous (iv) administration at a dose of 10 mg/Kg; type: functional
Rattus norvegicus [14] = test: Compound was evaluated in vivo for the immunosuppressive activity following intraperitoneal (ip) administration at a dose of 3 mg/kg; type: functional

`CCCCCCc1ccc(CCCCC(N)(CO)CO)cc1` showed an IC50 (Mus musculus) of 19 nM.

`CCCCCCCCCCCCCCCC(N)(CO)CO` was tested, and the Dose (Rattus norvegicus [1]) was 3 mg/kg.

`CCCCCCCCCCCCCCC(N)(CO)CO` showed an MST (Rattus norvegicus [2]) of 45 days, an MST (Rattus norvegicus [3]) of 40 days and an MST (Rattus norvegicus [4]) of 28 days. For the same molecule, the Dose (Rattus norvegicus [5]) was 10 mg/kg and the MST (Rattus norvegicus [6]) was 12 days.

Molecule `CCCCCCCCCCc1ccc(C(N)(CO)CO)cc1` has an IC50 (Mus musculus) of 13 nM.

For `CCCCCCCc1ccc(CCCC(N)(CO)CO)cc1`, the IC50 (Mus musculus) was 350 nM.

For `CCCCCCCCCc1ccc(CCC(N)(CO)CO)cc1`, the IC50 (Mus musculus) was 8.5 nM.

For `CCc1ccc(CCCCCCCCC(N)(CO)CO)cc1`, the IC50 (Mus musculus) was 32 nM.

`CCCCc1ccc(CCCCCCC(N)(CO)CO)cc1` was tested, and the IC50 (Mus musculus) was 100 nM.

`CCCCCCCCCc1ccc(CC(N)(CO)CO)cc1` was tested, and the IC50 (Mus musculus) was 70 nM.

Work on `NC(CO)(CO)CCCCCCCCCCc1ccccc1` yielded an IC50 (Mus musculus) of 54 nM.

For `CCCCCCCCc1ccc(CCC(N)(CO)CO)cc1` [FINGOLIMOD], the Dose (Rattus norvegicus [7]) was 10 mg/kg, the MST (Rattus norvegicus [3]) was 45 days and the MST (Rattus norvegicus [8]) was 24.8 days. It also gave an MST (Rattus norvegicus [9]) of 57.8 days, an MST (Rattus norvegicus [4]) of 36 days and an MST (Rattus norvegicus [10]) of 19.3 days. For the same molecule, the MST (Rattus norvegicus [11]) was 46.3 days, the MST (Rattus norvegicus [12]) was 41 days and the MST (Rattus norvegicus [13]) was 53.5 days. For the same molecule, the MST (Rattus norvegicus [14]) was 60 days and the MST (Rattus norvegicus [6]) was 32 days.
